{"source": "paper PMC7603158", "about": "“Attenuation of Spatial Memory in 5xFAD Mice by Halting Cholinesterases, Oxidative Stress and Neuroinflammation Using a Cyclopentanone Derivative” (Pharmaceuticals, 2020)", "molecular_target": "Acetylcholinesterase (AChE) (Electrophorus electricus, UniProt O42275)", "sequence (O42275 24-633)": "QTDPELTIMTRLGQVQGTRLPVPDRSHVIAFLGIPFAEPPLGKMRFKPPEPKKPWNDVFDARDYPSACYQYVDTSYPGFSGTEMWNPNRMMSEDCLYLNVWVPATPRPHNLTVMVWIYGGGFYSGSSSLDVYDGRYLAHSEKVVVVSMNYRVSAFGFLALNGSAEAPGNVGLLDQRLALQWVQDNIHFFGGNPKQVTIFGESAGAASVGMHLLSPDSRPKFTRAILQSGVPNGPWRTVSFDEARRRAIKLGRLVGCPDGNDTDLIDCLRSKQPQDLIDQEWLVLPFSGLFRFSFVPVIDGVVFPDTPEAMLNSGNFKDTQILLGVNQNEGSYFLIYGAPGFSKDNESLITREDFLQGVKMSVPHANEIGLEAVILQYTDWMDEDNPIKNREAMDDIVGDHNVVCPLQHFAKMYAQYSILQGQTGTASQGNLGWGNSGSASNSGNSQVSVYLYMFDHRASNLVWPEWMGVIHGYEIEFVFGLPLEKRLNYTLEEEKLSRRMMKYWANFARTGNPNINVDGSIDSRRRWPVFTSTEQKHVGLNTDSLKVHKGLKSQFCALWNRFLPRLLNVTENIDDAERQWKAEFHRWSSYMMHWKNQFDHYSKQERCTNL", "assay": "Ellman colorimetric enzyme inhibition assay (commercial enzyme)", "type": "biochemical"}
{"smiles": "O=C1CCCC1C(O)c1cccc([N+](=O)[O-])c1", "note": "(stereo not shown) [3NCP, 2-(hydroxy-(3-nitrophenyl)methyl)cyclopentanone]", "values": [{"measurement": "IC50", "result": 68.7, "unit": "µM"}]}
